Measurements: patent US9765018B2, “IDO inhibitors” (BRISTOL-MYERS SQUIBB COMPANY, priority 2013, dated 2017)

Biological target: T1, IDO (Homo sapiens (Human), UniProt P14902)
Experiment: LLE_IDO_ABS_DR (IDO assay, method not described)
Details: not given

T1 sequence (P14902 whole entry): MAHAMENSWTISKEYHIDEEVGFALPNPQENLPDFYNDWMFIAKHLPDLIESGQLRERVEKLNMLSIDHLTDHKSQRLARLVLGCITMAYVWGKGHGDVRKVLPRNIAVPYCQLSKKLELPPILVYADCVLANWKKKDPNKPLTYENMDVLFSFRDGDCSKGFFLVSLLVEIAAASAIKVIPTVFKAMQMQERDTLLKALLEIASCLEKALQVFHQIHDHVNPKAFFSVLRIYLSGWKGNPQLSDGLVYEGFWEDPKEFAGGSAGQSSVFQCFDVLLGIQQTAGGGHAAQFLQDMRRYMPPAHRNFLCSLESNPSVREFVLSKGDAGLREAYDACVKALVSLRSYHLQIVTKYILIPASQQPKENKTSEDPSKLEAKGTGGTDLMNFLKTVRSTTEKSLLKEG

IC50 [nM]	Compound
3350	C=CC(c1ccccc1)c1cc(-c2cc(F)ccc2C(=O)O)cc(NC(=O)Nc2ccc(C)cc2)c1OC1CCC(F)(F)CC1 (stereo not shown) [Example 292]

Biological target: T1, IDO
Experiment: Kynurenine assay in IFN-γ-stimulated Hela cells
Assay type: cell-based
Details: 20 h, read-out: Hela Kyurenine (IC50)
Description: Reagents: Hela cells (ATCC, CCL-2)
IFNg (R&D, 28-IF-100)—resuspend at 10 ug/mL in PBS with 0.1% BSA 30% TCA
Ehrlich reagent (2% w/v p-dimethylaminobenzaldehyde in glacial acetic acid)
Cell Lines and Culture Conditions
Hela cancer cell lines were acquired from the American Type Culture Collection. Cells were maintained in phenol red free-RPMI1640 medium containing high glucose and L-glutamine (Invitrogen) supplemented with 10% fetal bovine serum (FBS; Invitrogen). Cell cultures were incubated at 37° C., 5% CO2, and 100% humidity.
Cell Treatment and Kynurenine Assay
Hela cells were seeded on 96-well plates (40,000 cells per well) and allowed to adhere for 5-6 hours. Cells were then treated with vehicle (DMSO) or with IDO inhibitor at a top dose of 30 μM (3-fold dilution all the way down to 1.5 nM). A final concentration of 100 ng/mL of human recombinant IFN-γ (R&D, 28-IF-100) was immediately added to the cells to stimulate IDO expression. Treated cells were then incubated for 20 hours at 37° C. At the end of the 20 h incubation, reactions were terminated by the addition of 30% TCA to each well. Plates were incubated for 30 minutes at 50° C. to hydrolyze N-formylkynurenine to kynurenine. Cells were centrifuged 10 minutes at 2400 rpm. 100 ul of supernatants were transferred to new 96 flat well plates and mixed with 100 ul Ehrlich reagent. The resulting solution was incubated 10 minutes at RT. Absorbance at 490 nm was read using Spectra Max 384 (Molecular Devices).

Compound	IC50 [nM]
Cc1ccccc1NC(=O)Nc1cc(-c2ccc(C(=O)O)cc2)ccc1Oc1ccccc1C(C)(C)C [Example 200, 4′-(2-tert-butylphenoxy)-3′-- (3-o-tolylureido) biphenyl-4-carboxylic acid]	1520
Cc1cccc(NC(=O)Nc2cc(-c3ccc(Cl)cc3C(=O)O)ccc2Oc2ccccc2C(C)(C)C)c1 [Example 160, 4′-(2-tert-butylphenoxy)-4-chloro-3′-(3-m-tolylureido)biphenyl-2-carboxylic acid]	1320
4′-(2-(tert-butyl)phenoxy)-3′-(3-(4-chlorophenyl)ureido)-4-methoxy-[1,1′-biphenyl]-3-carboxylic acid [Example 106]	470
Cc1ccc(NC(=O)Nc2cc(-c3ccc(C(=O)O)c(Cl)c3)ccc2Oc2ccccc2C(F)(F)F)cc1 [Example 205, 3-chloro-3′-(3-p-tolylureido)-4′-(2-(trifluoromethyl)phenoxy)biphenyl-4-carboxylic acid]	850
COc1ccc(-c2ccc(Oc3c(C)cccc3C(C)(C)C)c(NC(=O)Nc3ccccc3C)c2)cc1C(=O)O [Example 59, 4′-(2-tert-butyl-6-methylphenoxy)-4-methoxy-3′-(3-o-tolylureido)biphenyl-3-carboxylic acid]	880
Cc1cccc(NC(=O)Nc2cc(-c3cccc(C(=O)O)c3)ccc2Oc2ccc(Cl)cc2)c1 [Example 249, 4′-(4-chlorophenoxy)-3′-(3-m-tolylureido) biphenyl-3-carboxylic acid]	2550
COc1ccc(-c2ccc(O[C@@H]3CCCC[C@H]3C)c(NC(=O)Nc3ccccc3C)c2)cc1C(=O)O (relative stereo) [Example 137, 4-methoxy-4′-((trans)-2-methylcyclohexyloxy)-3′-(3-o-tolylureido)biphenyl-3-carboxylic acid]	2430
O=C(Nc1ccccc1Cl)Nc1cc(-c2ccccc2-c2nnn[nH]2)ccc1Oc1cccc2c1CCCC2 [Example 186, 1-(2-chlorophenyl)-3-(4-(5,6,7,8-tetrahydronaphthalen-1-yloxy)-2′-(1H-tetrazol-5-yl)biphenyl-3-yl)urea]	1130
Cc1ccc(NC(=O)Nc2cc(-c3cc(F)cc(C(=O)O)c3)ccc2Oc2ccccc2C(C)(C)C)cc1 [Example 252, 4′-(2-tert-butylphenoxy)-5-fluoro-3′-(3-p-tolylureido) biphenyl-3-carboxylic acid]	660
CC(C)(C)c1ccccc1Oc1ccc(-c2cc(Cl)cc(C(=O)O)c2)cc1NC(=O)Nc1ccc(C#N)cc1 [Example 240, 4′-(2-tert-butylphenoxy)-5-chloro-3′-(3-(4-cyanophenyl)ureido)biphenyl-3-carboxylic acid]	540
O=C(Nc1ccccc1Cl)Nc1cc(-c2cccc(C(=O)O)c2)ccc1Oc1ccc(Cl)cc1 [Example 242, 4′-(4-chlorophenoxy)-3′-(3-(2-chlorophenyl)ureido)biphenyl-3-carboxylic acid]	1150
CC(C)(C)c1ccccc1Oc1ccc(-c2cccc(C(=O)O)c2)cc1NC(=O)NC1CCCCC1 [Example 221, 4′-(2-tert-butylphenoxy)-3′-(3-cyclohexylureido) biphenyl-3-carboxylic acid]	1010
Cc1ccc(NC(=O)Nc2cc(-c3cccc(C(=O)O)c3)ccc2Oc2ccccc2)cc1 [Example 235, 4′-phenoxy-3′-(3-p-tolylureido) biphenyl-3-carboxylic acid]	1430
O=C(Nc1ccc(OC(F)(F)F)cc1)Nc1cc(-c2cc(Cl)cc(C(=O)O)c2)ccc1Oc1ccccc1Cl [Example 260, 5-chloro-4′-(2-chlorophenoxy)-3′-(3-(4-(trifluoromethoxy)phenyl)ureido)biphenyl-3-carboxylic acid]	5590
Cc1ccccc1NC(=O)Nc1cc(-c2cccc(C(=O)O)c2)ccc1Oc1cccc(Cl)c1 [Example 244, 4′-(3-chlorophenoxy)-3′-(3-o-tolylureido) biphenyl-3-carboxylic acid]	840
Cc1cccc(NC(=O)Nc2cc(-c3ccc(C(=O)O)c(Cl)c3)ccc2Oc2ccccc2C(F)(F)F)c1 [Example 204, 3-chloro-3′-(3-m-tolylureido)-4′-(2-(trifluoromethyl)phenoxy)biphenyl-4-carboxylic acid]	1250
CC(C)(C)c1ccccc1Oc1ccc(-c2cc(F)cc(C(=O)O)c2)cc1NC(=O)Nc1ccc(OC(F)(F)F)cc1 [Example 222, 4′-(2-tert-butylphenoxy)-5-fluoro-3′-(3-(4-(trifluoromethoxy)phenyl)ureido) biphenyl-3-carboxylic acid]	1630
COc1cc(-c2ccc(Oc3ccccc3C(C)(C)C)c(NC(=O)Nc3ccc(C)cc3)c2)ccc1C(=O)O [Example 258, 4′-(2-tert-butylphenoxy)-3-methoxy-3′-(3-p-tolylureido) biphenyl-4-carboxylic acid]	2250
COc1ccc(Cl)cc1NC(=O)Nc1cc(-c2ccc(OC)c(C(=O)O)c2)ccc1Oc1ccccc1C(C)(C)C [Example 109, 4′-(2-(tert-butyl)phenoxy)-3′-(3-(5-chloro-2-methoxyphenyl)ureido)-4-methoxy-[1,1′-biphenyl]-3-carboxylic acid]	600
CC(C)(C)c1ccccc1Oc1ccc(-c2ccc(C(=O)O)c(F)c2)cc1NC(=O)Nc1ccccc1Cl [Example 217, 4′-(2-tert-butylphenoxy)-3′-(3-(2-chlorophenyl)ureido)-3-fluorobiphenyl-4-carboxylic acid]	1250

More lines, now with the values ahead:

IC50 [nM]	Compound
130	COc1ccc(-c2ccc(Oc3ccccc3C(C)(C)C)c(NC(=O)NC(C)(C)C)c2)cc1C(=O)O [Example 88, 4′-(2-(tert-butyl)phenoxy)-3′-(3-(tert-butyl)ureido)-4-methoxy-[1,1′-biphenyl]-3-carboxylic acid]
120	CCCNC(=O)Nc1cc(-c2ccc(OC)c(C(=O)O)c2)ccc1Oc1ccccc1C(C)(C)C [Example 89, 4′-(2-(tert-butyl)phenoxy)-3′-(3-(n-propyl)ureido)-4-methoxy-[1,1′-biphenyl]-3-carboxylic acid]
280	COc1ccc(NC(=O)Nc2cc(-c3ccc(OC)c(C(=O)O)c3)ccc2Oc2ccccc2C(C)(C)C)cc1 [Example 87, 4′-(2-(tert-butyl)phenoxy)-3′-(3-(4-methoxyphenyl)ureido)-4-methoxy-[1,1′-biphenyl]-3-carboxylic acid]
470	COc1ccc(-c2ccc(Oc3ccccc3C(C)(C)C)c(NC(=O)Nc3ccc(C)cc3F)c2)cc1C(=O)O [Example 100, 4′-(2-(tert-butyl)phenoxy)-3′-(3-(2-fluoro-4-methylphenyl)ureido)-4-methoxy-[1,1′-biphenyl]-3-carboxylic acid]
310	COc1ccc(-c2ccc(Oc3c(C)cccc3C(C)(C)C)c(NC(=O)Nc3ccc(C)cc3)c2)cc1C(=O)O [Example 61, 4′-(2-tert-butyl-6-methylphenoxy)-4-methoxy-3′-(3-p-tolylureido)biphenyl-3-carboxylic acid]
420	CC(C)(C)c1ccccc1Oc1ccc(-c2cccc(C(=O)O)c2)cc1NC(=O)Nc1ccccc1Cl [Example 228, 4′-(2-tert-butylphenoxy)-3′-(3-(2-chlorophenyl)ureido)biphenyl-3-carboxylic acid]
150	CC(C)(C)c1ccccc1Oc1ccc(-c2ccc(C(=O)O)c(Cl)c2)cc1NC(=O)Nc1ccccc1C(F)(F)F [Example 214, 4′-(2-tert-butylphenoxy)-3-chloro-3′-(3-(2-(trifluoromethyl)phenyl)ureido) biphenyl-4-carboxylic acid]
230	COc1cccc(NC(=O)Nc2cc(-c3ccc(OC)c(C(=O)O)c3)ccc2Oc2ccccc2C(C)(C)C)c1 [Example 86, 4′-(2-(tert-butyl)phenoxy)-3′-(3-(3-methoxyphenyl)ureido)-4-methoxy-[1,1′-biphenyl]-3-carboxylic acid]
540	CCc1ccccc1Oc1ccc(-c2ccc(OC)c(C(=O)O)c2)cc1NC(=O)Nc1ccc(C)cc1 [Example 47, 4′-(2-ethylphenoxy)-4-methoxy-3′-(3-p-tolylureido)biphenyl-3-carboxylic acid]
390	COc1ccc(-c2ccc(Oc3ccccc3C)c(NC(=O)Nc3cccc(C)c3)c2)cc1C(=O)O [Example 70, 4-methoxy-4′-(o-tolyloxy)-3′-(3-m-tolylureido)biphenyl-3-carboxylic acid]
380	COc1ccc(-c2ccc(Oc3ccccc3C)c(NC(=O)Nc3ccccc3C)c2)cc1C(=O)O [Example 72, 4-methoxy-4′-(o-tolyloxy)-3′-(3-o-tolylureido)biphenyl-3-carboxylic acid]
180	COc1ccc(-c2ccc(Oc3ccccc3C)c(NC(=O)Nc3ccccc3Cl)c2)cc1C(=O)O [Example 71, 3′-(3-(2-chlorophenyl)ureido)-4-methoxy-4′-(o-tolyloxy)biphenyl-3-carboxylic acid]
240	COc1ccc(-c2ccc(Oc3ccccc3C(C)(C)C)c(NC(=O)Nc3cccc(C)c3C)c2)cc1C(=O)O [Example 92, 4′-(2-(tert-butyl)phenoxy)-3′-(3-(2,3-dimethylphenyl)ureido)-4-methoxy-[1,1′-biphenyl]-3-carboxylic acid]
